Measured values as given in PubChem BioAssay (NCI).
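Results reflect a 48-hour exposure of cells in 96-well plates to compound at five concentrations. The concentration for 50% growth inhibition is given as GI50. TGI denotes the concentration required for complete inhibition of growth.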

Legend:
Assay in all cases: DTP human tumour cell line panel, 48 h
TK-10 renal = tested on: TK-10 renal
OVCAR-8 ovarian = tested on: OVCAR-8 ovarian
MDA-MB-435 = tested on: MDA-MB-435
CAKI-1 renal = tested on: CAKI-1 renal
RPMI-8226 leukemia = tested on: RPMI-8226 leukemia
SN12C renal = tested on: SN12C renal
OVCAR-3 ovarian = tested on: OVCAR-3 ovarian
MCF7 breast = tested on: MCF7 breast
BT-549 breast = tested on: BT-549 breast
SF-268 CNS = tested on: SF-268 CNS
A498 renal = tested on: A498 renal
SNB-19 CNS = tested on: SNB-19 CNS
NCI-H522 lung = tested on: NCI-H522 lung
HS 578T breast = tested on: HS 578T breast
MALME-3M melanoma = tested on: MALME-3M melanoma
KM12 colon = tested on: KM12 colon
UACC-62 melanoma = tested on: UACC-62 melanoma
IGROV1 ovarian = tested on: IGROV1 ovarian
SK-MEL-5 melanoma = tested on: SK-MEL-5 melanoma
SR leukemia = tested on: SR leukemia
DU-145 prostate = tested on: DU-145 prostate
NCI-H226 lung = tested on: NCI-H226 lung
T-47D breast = tested on: T-47D breast
SW-620 colon = tested on: SW-620 colon
HOP-92 NSCLC = tested on: HOP-92 NSCLC
SNB-75 CNS = tested on: SNB-75 CNS
SF-539 CNS = tested on: SF-539 CNS
UACC-257 melanoma = tested on: UACC-257 melanoma
MDA-MB-231 breast = tested on: MDA-MB-231 breast
HCT-15 colon = tested on: HCT-15 colon
CCRF-CEM leukemia = tested on: CCRF-CEM leukemia
HOP-62 NSCLC = tested on: HOP-62 NSCLC
OVCAR-5 ovarian = tested on: OVCAR-5 ovarian
COLO 205 colon = tested on: COLO 205 colon
MOLT-4 leukemia = tested on: MOLT-4 leukemia
EKVX NSCLC = tested on: EKVX NSCLC
NCI/ADR-RES ovarian = tested on: NCI/ADR-RES ovarian
NCI-H23 lung = tested on: NCI-H23 lung
K-562 leukemia = tested on: K-562 leukemia
SK-OV-3 ovarian = tested on: SK-OV-3 ovarian
SK-MEL-28 melanoma = tested on: SK-MEL-28 melanoma
LOX IMVI melanoma = tested on: LOX IMVI melanoma
A549 NSCLC = tested on: A549 NSCLC
ACHN renal = tested on: ACHN renal
HT29 colon = tested on: HT29 colon
NCI-H460 lung = tested on: NCI-H460 lung
U251 CNS = tested on: U251 CNS
SF-295 CNS = tested on: SF-295 CNS
HCT-116 colon = tested on: HCT-116 colon
RXF 393 renal = tested on: RXF 393 renal
UO-31 renal = tested on: UO-31 renal
OVCAR-4 ovarian = tested on: OVCAR-4 ovarian
SK-MEL-2 melanoma = tested on: SK-MEL-2 melanoma
786-0 renal = tested on: 786-0 renal
HCC-2998 colon = tested on: HCC-2998 colon
PC-3 prostate = tested on: PC-3 prostate

COc1cccc(C#Cc2ccccc2C#CCCCCO)c1
GI50 (TK-10 renal): 13.1 µM | TGI (TK-10 renal): 29.6 µM | GI50 (OVCAR-8 ovarian): 12.5 µM | TGI (OVCAR-8 ovarian): 27.9 µM | GI50 (MDA-MB-435): 1.92 µM | TGI (MDA-MB-435): 8.2 µM | GI50 (CAKI-1 renal): 6.49 µM | TGI (CAKI-1 renal): 19.9 µM | GI50 (RPMI-8226 leukemia): 3.77 µM | TGI (RPMI-8226 leukemia): 26.4 µM | GI50 (SN12C renal): 11.6 µM | TGI (SN12C renal): 27 µM | GI50 (OVCAR-3 ovarian): 10.7 µM | TGI (OVCAR-3 ovarian): 28.8 µM | GI50 (MCF7 breast): 16.1 µM | TGI (MCF7 breast): 41.1 µM | GI50 (BT-549 breast): 3.07 µM | TGI (BT-549 breast): 20.2 µM | GI50 (SF-268 CNS): 16.1 µM | TGI (SF-268 CNS): 33.5 µM | GI50 (A498 renal): 10.3 µM | TGI (A498 renal): 23.8 µM | GI50 (SNB-19 CNS): 18.5 µM | TGI (SNB-19 CNS): 35.5 µM | GI50 (NCI-H522 lung): 13.3 µM | TGI (NCI-H522 lung): 30 µM | GI50 (HS 578T breast): 22.9 µM | TGI (HS 578T breast): 56.9 µM | GI50 (MALME-3M melanoma): 13.9 µM | TGI (MALME-3M melanoma): 37.9 µM | GI50 (KM12 colon): 12.4 µM | TGI (KM12 colon): 41.8 µM | GI50 (UACC-62 melanoma): 5.7 µM | TGI (UACC-62 melanoma): 19.8 µM | GI50 (IGROV1 ovarian): 10.3 µM | TGI (IGROV1 ovarian): 22.6 µM | GI50 (SK-MEL-5 melanoma): 19.1 µM | TGI (SK-MEL-5 melanoma): 33.8 µM | GI50 (SR leukemia): 1.95 µM | TGI (SR leukemia): 12.1 µM | GI50 (DU-145 prostate): 4.17 µM | TGI (DU-145 prostate): 18.9 µM | GI50 (NCI-H226 lung): 15.7 µM | TGI (NCI-H226 lung): 40.5 µM | GI50 (T-47D breast): 18.5 µM | TGI (T-47D breast): 43.1 µM | GI50 (SW-620 colon): 17.5 µM | TGI (SW-620 colon): 35.9 µM | GI50 (HOP-92 NSCLC): 2.49 µM | TGI (HOP-92 NSCLC): 21.7 µM | GI50 (SNB-75 CNS): 12.8 µM | TGI (SNB-75 CNS): 26.3 µM | GI50 (SF-539 CNS): 11.5 µM | TGI (SF-539 CNS): 24.6 µM | GI50 (UACC-257 melanoma): 12.5 µM | TGI (UACC-257 melanoma): 25.4 µM | GI50 (MDA-MB-231 breast): 3.41 µM | TGI (MDA-MB-231 breast): 13.2 µM | GI50 (HCT-15 colon): 3.62 µM | TGI (HCT-15 colon): 17.7 µM | GI50 (CCRF-CEM leukemia): 3.5 µM | TGI (CCRF-CEM leukemia): 17.4 µM | GI50 (HOP-62 NSCLC): 15.5 µM | TGI (HOP-62 NSCLC): 34.3 µM | GI50 (OVCAR-5 ovarian): 14.6 µM | TGI (OVCAR-5 ovarian): 29.3 µM | GI50 (COLO 205 colon): 17.9 µM | TGI (COLO 205 colon): 36.2 µM | GI50 (MOLT-4 leukemia): 3.82 µM | TGI (MOLT-4 leukemia): 53.1 µM | GI50 (EKVX NSCLC): 8.74 µM | TGI (EKVX NSCLC): 24.3 µM | GI50 (NCI/ADR-RES ovarian): 5.44 µM | TGI (NCI/ADR-RES ovarian): 20 µM | GI50 (NCI-H23 lung): 12.5 µM | TGI (NCI-H23 lung): 26.1 µM | GI50 (K-562 leukemia): 1.84 µM | TGI (K-562 leukemia): 85.4 µM | GI50 (SK-OV-3 ovarian): 17.2 µM | TGI (SK-OV-3 ovarian): 32.5 µM | GI50 (SK-MEL-28 melanoma): 15.3 µM | TGI (SK-MEL-28 melanoma): 30.3 µM | GI50 (LOX IMVI melanoma): 6.3 µM | TGI (LOX IMVI melanoma): 21.2 µM | GI50 (A549 NSCLC): 4.21 µM | TGI (A549 NSCLC): 17.3 µM | GI50 (ACHN renal): 11.8 µM | TGI (ACHN renal): 25.8 µM | GI50 (HT29 colon): 12.1 µM | TGI (HT29 colon): 27.9 µM | GI50 (NCI-H460 lung): 16.1 µM | TGI (NCI-H460 lung): 34 µM | GI50 (U251 CNS): 8.41 µM | TGI (U251 CNS): 22.3 µM | GI50 (SF-295 CNS): 7.94 µM | TGI (SF-295 CNS): 22.1 µM | GI50 (HCT-116 colon): 12.2 µM | TGI (HCT-116 colon): 26.4 µM | GI50 (RXF 393 renal): 1.78 µM | TGI (RXF 393 renal): 9.89 µM | GI50 (UO-31 renal): 8.79 µM | TGI (UO-31 renal): 22.3 µM | GI50 (OVCAR-4 ovarian): 20.4 µM | TGI (OVCAR-4 ovarian): 44.2 µM | GI50 (SK-MEL-2 melanoma): 20.5 µM | TGI (SK-MEL-2 melanoma): 44.8 µM | GI50 (786-0 renal): 12.8 µM | TGI (786-0 renal): 28 µM | GI50 (HCC-2998 colon): 5.95 µM | TGI (HCC-2998 colon): 19.4 µM | GI50 (PC-3 prostate): 9.83 µM | TGI (PC-3 prostate): 23.7 µM
